# Assay results from ChEMBL document CHEMBL2331532, “(+)-Laburnamine, a natural selective ligand and partial agonist for the α4β2 nicotinic receptor subtype” (J Nat Prod, 2013).
# Active and inactive are the calls of the source. No cut-off for these calls is given here.
# Experiments:
# [1] = target: T1, Neuronal acetylcholine receptor; alpha4/beta2 (Rattus norvegicus, UniProt P09483+P12390); assay: Displacement of [3H]epibatidine from alpha4beta2 nAChR in rat cortex
# [2] = target: Neuronal acetylcholine receptor subunit alpha-7 (Homo sapiens, UniProt P36544); assay: Displacement of [3H]methyllycaconitine from alpha7 nAChR (unknown origin)
# [3] = target: Neuronal acetylcholine receptor; alpha4/beta2 (Homo sapiens, UniProt P17787+P43681); assay: Displacement of [3H]epibatidine from alpha4beta2 nAChR (unknown origin); assay type: protein-complex assay
# Rattus norvegicus = species: Rattus norvegicus; assay: Selectivity ratio of Ki for alpha7 nAChR in rat hippocampus to Ki for alpha4beta2 nAChR in rat cortex; assay type: tissue-based
# [4] = Selectivity ratio of Ki for human alpha3beta4 nAChR to Ki for alpha4beta2 nAChR in rat cortex
# [5] = target: T2, Acetylcholine receptor; alpha1/beta1/delta/gamma (Homo sapiens, UniProt P02708+P07510+P11230+Q07001); assay: Displacement of [125I]alpha-bungarotoxin from human alpha2betagammadelta nAChR at 10 uM; assay type: protein-complex assay
# [6] = target: T3, Neuronal acetylcholine receptor; alpha4/beta2 (Rattus norvegicus) (UniProt P09483+P12390); assay: (§1) Antagonist activity at alpha4beta2 nAChR in rat brain striatal slices assessed as inhibition of nicotine-induced release of [3H]dopamine release; assay type: tissue-based; settings: concentration not given here
# [7] = target: T1, Neuronal acetylcholine receptor; alpha4/beta2; assay: as §1; assay type: tissue-based
# [8] = target: T3, Neuronal acetylcholine receptor; alpha4/beta2 (Rattus norvegicus); assay: Agonist activity at alpha4beta2 nAChR in rat brain striatal slices assessed as release of [3H]dopamine release relative to nicotine; assay type: tissue-based
# [9] = target: T1, Neuronal acetylcholine receptor; alpha4/beta2; assay: Agonist activity at alpha4beta2 nAChR in rat brain striatal slices assessed as release of [3H]dopamine release; assay type: tissue-based
# [10] = target: T2, Acetylcholine receptor; alpha1/beta1/delta/gamma; assay: Displacement of [125I]alpha-bungarotoxin from human alpha2betagammadelta nAChR; assay type: protein-complex assay
# [11] = target: Neuronal acetylcholine receptor subunit alpha-7 (Rattus norvegicus, UniProt Q05941); assay: Displacement of [125I]alpha-bungarotoxin from alpha7 nAChR from rat hippocampus; assay type: tissue-based
# [12] = target: Neuronal acetylcholine receptor; alpha3/beta4 (Homo sapiens, UniProt P30926+P32297); assay: Displacement of [3H]epibatidine from human alpha3beta4 nAChR expressed in HEK cells; assay type: cell-based, HEK293
# [13] = target: T3, Neuronal acetylcholine receptor; alpha4/beta2 (Rattus norvegicus); assay: Displacement of [3H]epibatidine from alpha4beta2 nAChR in rat cortex up to 100 uM
# T1 sequence (P09483 whole entry): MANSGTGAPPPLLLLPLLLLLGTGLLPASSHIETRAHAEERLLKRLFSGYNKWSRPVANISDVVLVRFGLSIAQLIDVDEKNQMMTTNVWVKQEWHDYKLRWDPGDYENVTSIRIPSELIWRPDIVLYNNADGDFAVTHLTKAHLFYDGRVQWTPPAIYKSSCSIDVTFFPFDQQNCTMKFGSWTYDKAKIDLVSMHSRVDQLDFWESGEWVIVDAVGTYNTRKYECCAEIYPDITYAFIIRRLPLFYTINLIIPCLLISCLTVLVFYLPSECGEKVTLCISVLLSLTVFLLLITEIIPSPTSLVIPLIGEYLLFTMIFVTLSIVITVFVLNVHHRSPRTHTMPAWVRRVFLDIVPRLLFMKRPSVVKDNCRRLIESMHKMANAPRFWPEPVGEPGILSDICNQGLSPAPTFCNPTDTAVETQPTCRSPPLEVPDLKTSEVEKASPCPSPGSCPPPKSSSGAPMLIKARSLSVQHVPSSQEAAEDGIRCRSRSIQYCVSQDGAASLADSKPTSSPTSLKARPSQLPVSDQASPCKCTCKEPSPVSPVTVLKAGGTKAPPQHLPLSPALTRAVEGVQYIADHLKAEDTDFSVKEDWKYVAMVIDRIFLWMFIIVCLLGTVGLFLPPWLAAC
# T1 sequence (P12390 whole entry): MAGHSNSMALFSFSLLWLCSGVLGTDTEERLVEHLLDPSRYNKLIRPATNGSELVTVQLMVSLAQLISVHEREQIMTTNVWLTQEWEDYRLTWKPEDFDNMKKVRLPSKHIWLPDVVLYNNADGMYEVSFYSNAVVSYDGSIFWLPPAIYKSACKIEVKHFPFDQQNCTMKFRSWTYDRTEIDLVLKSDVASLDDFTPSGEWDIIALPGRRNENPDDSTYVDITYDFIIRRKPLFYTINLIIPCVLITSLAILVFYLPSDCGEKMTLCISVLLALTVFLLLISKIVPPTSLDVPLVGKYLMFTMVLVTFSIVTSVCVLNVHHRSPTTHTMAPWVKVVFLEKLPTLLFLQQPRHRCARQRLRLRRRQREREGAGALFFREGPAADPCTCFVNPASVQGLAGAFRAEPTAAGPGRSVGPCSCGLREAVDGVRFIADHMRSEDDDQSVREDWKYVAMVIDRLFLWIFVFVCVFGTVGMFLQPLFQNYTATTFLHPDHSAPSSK
# Neuronal acetylcholine receptor subunit alpha-7 (Rattus norvegicus, UniProt Q05941), sequence (Q05941 whole entry): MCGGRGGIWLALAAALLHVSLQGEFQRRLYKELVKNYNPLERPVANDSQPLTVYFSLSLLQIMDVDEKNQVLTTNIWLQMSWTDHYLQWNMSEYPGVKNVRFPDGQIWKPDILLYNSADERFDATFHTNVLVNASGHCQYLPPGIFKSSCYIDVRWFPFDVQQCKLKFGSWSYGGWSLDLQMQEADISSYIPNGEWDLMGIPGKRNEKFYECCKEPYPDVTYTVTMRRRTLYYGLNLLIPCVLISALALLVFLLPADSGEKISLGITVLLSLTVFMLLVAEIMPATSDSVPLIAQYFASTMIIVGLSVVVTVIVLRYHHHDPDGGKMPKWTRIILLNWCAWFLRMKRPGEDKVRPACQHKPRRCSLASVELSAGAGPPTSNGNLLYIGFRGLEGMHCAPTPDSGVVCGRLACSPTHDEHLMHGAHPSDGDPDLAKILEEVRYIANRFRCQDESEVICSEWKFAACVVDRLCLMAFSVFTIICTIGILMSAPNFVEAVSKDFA
# Neuronal acetylcholine receptor; alpha3/beta4, sequence (P30926 whole entry): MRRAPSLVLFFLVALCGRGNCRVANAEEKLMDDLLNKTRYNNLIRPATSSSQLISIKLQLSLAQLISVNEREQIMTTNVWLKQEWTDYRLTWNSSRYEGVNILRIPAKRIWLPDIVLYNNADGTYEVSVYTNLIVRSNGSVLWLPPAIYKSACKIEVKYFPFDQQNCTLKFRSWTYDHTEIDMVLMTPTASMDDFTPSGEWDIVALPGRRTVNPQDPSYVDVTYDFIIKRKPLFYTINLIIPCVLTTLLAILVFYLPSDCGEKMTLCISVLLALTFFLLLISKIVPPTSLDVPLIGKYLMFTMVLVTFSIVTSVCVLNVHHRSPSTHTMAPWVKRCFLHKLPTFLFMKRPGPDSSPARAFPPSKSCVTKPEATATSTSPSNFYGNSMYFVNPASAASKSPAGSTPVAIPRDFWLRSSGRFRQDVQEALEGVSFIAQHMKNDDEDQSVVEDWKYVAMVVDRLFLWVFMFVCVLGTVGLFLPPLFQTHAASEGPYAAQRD
# Neuronal acetylcholine receptor; alpha3/beta4, sequence (P32297 whole entry): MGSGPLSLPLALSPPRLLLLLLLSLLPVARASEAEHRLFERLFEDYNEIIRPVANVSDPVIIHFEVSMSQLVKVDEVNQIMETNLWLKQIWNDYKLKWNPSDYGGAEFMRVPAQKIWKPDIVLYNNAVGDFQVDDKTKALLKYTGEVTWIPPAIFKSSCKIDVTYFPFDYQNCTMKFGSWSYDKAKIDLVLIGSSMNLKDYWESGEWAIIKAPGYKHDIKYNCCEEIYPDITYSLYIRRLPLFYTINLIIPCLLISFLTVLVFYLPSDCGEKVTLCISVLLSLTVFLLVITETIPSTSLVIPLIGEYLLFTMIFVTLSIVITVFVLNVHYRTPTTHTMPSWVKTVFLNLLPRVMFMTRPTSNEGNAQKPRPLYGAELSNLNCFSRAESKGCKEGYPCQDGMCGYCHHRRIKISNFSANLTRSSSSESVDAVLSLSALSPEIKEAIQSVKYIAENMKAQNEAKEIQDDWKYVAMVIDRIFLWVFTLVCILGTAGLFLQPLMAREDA
# T2 sequence (P02708 whole entry): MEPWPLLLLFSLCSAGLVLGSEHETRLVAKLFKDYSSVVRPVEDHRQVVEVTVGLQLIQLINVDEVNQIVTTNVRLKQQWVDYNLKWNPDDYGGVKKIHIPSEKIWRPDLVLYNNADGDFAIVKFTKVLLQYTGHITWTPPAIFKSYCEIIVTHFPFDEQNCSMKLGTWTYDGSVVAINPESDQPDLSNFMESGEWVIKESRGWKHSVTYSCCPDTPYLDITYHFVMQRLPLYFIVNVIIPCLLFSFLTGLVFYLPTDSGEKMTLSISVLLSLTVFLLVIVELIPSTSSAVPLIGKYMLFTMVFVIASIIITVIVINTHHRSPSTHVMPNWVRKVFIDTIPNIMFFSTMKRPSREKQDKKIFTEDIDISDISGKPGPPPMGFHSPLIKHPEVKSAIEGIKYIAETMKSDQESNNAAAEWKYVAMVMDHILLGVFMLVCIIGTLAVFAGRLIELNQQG
# T2 sequence (P07510 whole entry): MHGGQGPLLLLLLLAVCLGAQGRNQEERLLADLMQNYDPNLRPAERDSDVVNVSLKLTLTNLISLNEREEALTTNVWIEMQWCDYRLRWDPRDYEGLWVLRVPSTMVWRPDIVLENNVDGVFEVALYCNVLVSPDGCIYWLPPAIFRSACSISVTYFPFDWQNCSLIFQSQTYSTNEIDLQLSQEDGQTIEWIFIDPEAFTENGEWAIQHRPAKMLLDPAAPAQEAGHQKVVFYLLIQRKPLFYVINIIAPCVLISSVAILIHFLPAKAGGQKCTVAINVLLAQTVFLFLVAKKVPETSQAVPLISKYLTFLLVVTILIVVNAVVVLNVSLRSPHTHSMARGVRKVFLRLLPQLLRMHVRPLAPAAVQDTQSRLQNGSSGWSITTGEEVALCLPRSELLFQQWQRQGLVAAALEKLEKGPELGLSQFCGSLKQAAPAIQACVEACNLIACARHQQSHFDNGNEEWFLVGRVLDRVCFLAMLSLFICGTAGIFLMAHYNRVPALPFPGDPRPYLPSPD
# T2 sequence (P11230 whole entry): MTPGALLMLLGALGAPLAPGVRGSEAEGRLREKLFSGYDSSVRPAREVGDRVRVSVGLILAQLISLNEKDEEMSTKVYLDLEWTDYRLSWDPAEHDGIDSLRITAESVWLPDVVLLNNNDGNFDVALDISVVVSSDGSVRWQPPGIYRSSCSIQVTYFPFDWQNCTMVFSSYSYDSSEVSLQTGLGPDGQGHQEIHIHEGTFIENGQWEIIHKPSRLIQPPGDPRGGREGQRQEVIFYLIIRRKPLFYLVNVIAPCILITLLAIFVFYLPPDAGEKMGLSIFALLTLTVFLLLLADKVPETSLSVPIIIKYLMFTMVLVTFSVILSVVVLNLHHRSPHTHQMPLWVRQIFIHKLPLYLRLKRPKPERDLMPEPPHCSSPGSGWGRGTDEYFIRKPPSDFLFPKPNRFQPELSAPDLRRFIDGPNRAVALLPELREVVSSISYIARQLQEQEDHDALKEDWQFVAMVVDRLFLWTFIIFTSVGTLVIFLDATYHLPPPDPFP
# T2 sequence (Q07001 whole entry): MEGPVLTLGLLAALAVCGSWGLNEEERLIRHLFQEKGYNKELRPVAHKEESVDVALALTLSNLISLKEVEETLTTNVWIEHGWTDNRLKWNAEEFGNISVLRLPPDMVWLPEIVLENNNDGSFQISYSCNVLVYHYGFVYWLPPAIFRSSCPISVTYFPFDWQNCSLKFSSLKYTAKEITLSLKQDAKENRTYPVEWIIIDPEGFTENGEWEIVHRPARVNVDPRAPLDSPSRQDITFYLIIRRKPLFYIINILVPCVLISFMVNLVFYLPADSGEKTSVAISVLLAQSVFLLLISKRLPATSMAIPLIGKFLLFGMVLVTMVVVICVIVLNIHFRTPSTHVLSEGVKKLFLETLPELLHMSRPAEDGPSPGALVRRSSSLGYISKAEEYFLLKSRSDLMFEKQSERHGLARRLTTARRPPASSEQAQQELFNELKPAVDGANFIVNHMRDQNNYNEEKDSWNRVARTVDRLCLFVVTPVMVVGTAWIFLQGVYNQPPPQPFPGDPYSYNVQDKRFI
compound,measurement,setting,value
CC(C)C(=O)N[C@H]1CCCN2CCCC[C@@H]12 (racemic),Ki,[1],6.81 µM
CC(=O)C1=CC[C@@H]2CC[C@H]1N2,Ki,[2],100 µM
same,Ki,[3],0.094 µM
CC(C)C(=O)N[C@H]1CCCN2CCCC[C@H]12 (racemic),Ki,[1],6.05 µM
CCC(C)C(=O)N[C@H]1CCN2CCC[C@H]12 (stereo not given in full),Ratio Ki,Rattus norvegicus,136
same,Ratio Ki,[4],126
same,Activity,[5],5%
same,inhibition,[6],46%
same,IC50,[7],1.6 µM
same,Efficacy,[8],43%
same,EC50,[9],5.8 µM
same,Ki,[10],> 10 µM
same,Ki,[11],40 µM
same,Ki,[12],37 µM
same,Ki,[1],0.29 µM
CC(C)C(=O)N[C@@H]1CCN2CCCC[C@@H]12 (racemic),Ki,[11],29 µM
same,Ki,[1],100 µM
CCC(=O)N[C@H]1CCCN2CCCC[C@H]12 (racemic),Ki,[1],6.15 µM
CCC(=O)N[C@H]1CCCN2CCCC[C@@H]12 (racemic),Ki,[1],4.44 µM
CC(=O)N[C@H]1CCCN2CCCC[C@@H]12,Activity,[13],inactive
CC(C)C(=O)N[C@H]1CCN2CCCC[C@@H]12 (racemic),Ki,[11],26 µM
same,Ki,[1],283 µM
O=c1cccc2n1C[C@@H]1CNC[C@H]2C1 [CYTISINICLINE],Ki,[11],0.23 µM
same,Ki,[12],0.28 µM
same,Ki,[1],0.0021 µM
